In assay [1] the target is T1, NA transporter (Rattus norvegicus, UniProt Q9WTR4).
T1 construct: synaptosomes from rat brain regions were freshly isolated; from tissue; host or cells: P2 synaptosome fraction from hypothalamus of male rat brain
The experiment in a line: Noradrenalin uptake inhibition (NA-uptake) in synaptosomes. The note with it: rat hypothalamus synaptosomes. The assay is classed as biochemical. An excerpt: Tests on Noradrenalin Uptake Inhibition (NA-Uptake Inhibition)
In order to be able to carry out these in vitro studies, synaptosomes from rat brain regions were freshly isolated.

Assay [2] has as its target T2, α2A-receptor (Homo sapiens, UniProt P08913).
T2 construct: purchased
T2 sequence (P08913 1-465): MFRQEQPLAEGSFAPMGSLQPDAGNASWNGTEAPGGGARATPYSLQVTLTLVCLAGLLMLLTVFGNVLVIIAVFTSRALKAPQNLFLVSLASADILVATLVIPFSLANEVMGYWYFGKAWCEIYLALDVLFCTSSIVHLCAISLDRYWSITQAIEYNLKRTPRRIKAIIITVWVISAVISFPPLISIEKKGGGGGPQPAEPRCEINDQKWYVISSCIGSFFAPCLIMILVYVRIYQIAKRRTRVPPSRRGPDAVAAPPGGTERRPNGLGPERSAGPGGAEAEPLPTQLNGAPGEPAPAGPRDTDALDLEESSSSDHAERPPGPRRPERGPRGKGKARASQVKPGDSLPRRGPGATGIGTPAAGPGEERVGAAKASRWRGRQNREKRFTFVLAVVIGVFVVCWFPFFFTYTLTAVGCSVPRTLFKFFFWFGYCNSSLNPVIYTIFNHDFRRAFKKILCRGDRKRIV
The experiment in a line: α2A-assay, displacement of a marked ligand. The note with it: human receptor membranes, read-out: alpha2A human, 1 μM, % inhibition. The assay is classed as binding. As for the experimental part: The bond was measured here by the displacement of a marked ligand. The test was carried out according to J. P. Devlin's instructions, “High throughput screening—the discovery of bioactive substances”, p. 275-453, Marcel Dekker, New York, 1997. Membranes containing […] (human) were obtained commercially.
Compounds according to the invention were tested in this assay: the measured results are recited in Table 5: […]

In assay [3] the target is T3, 5HT-uptake (Rattus norvegicus, UniProt P31652).
T3 construct: synaptosomes from rat brain regions were freshly isolated; from tissue; host or cells: P2 synaptosome fraction from rat brain regions
T3 sequence (P31652 whole entry): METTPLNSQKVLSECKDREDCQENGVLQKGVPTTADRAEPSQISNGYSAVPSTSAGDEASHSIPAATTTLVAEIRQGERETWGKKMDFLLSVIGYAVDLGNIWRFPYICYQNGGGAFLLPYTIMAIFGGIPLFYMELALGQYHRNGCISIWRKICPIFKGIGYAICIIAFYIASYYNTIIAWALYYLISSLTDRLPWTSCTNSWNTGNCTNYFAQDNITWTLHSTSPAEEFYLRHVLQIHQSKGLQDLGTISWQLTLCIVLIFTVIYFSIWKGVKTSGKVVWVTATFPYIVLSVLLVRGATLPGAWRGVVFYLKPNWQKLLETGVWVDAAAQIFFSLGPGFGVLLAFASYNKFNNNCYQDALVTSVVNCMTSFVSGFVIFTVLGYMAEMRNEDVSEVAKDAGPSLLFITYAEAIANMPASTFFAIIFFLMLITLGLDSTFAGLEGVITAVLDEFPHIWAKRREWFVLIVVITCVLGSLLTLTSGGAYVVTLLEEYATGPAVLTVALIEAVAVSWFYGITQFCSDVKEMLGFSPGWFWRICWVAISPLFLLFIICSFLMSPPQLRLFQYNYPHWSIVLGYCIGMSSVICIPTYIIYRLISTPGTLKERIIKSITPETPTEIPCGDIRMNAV
As to the kind of experiment: Serotonin uptake inhibition (5HT uptake) in synaptosomes. The assay is classed as biochemical. The note with it: rat brain synaptosomes.
Description: Tests on Serotonin Uptake (5HT Uptake Inhibition)

The record followed here is patent US8557796B2, “Substituted 1-oxa-2,8-diaza-spiro [4,5] dec-2-ene derivatives and related treatment methods” (Gruenenthal GmbH, priority 2001, dated 2013).

For orientation: inhibition means the change of the read-out against control, counted positive when it falls.

T1 sequence (Q9WTR4 1-597): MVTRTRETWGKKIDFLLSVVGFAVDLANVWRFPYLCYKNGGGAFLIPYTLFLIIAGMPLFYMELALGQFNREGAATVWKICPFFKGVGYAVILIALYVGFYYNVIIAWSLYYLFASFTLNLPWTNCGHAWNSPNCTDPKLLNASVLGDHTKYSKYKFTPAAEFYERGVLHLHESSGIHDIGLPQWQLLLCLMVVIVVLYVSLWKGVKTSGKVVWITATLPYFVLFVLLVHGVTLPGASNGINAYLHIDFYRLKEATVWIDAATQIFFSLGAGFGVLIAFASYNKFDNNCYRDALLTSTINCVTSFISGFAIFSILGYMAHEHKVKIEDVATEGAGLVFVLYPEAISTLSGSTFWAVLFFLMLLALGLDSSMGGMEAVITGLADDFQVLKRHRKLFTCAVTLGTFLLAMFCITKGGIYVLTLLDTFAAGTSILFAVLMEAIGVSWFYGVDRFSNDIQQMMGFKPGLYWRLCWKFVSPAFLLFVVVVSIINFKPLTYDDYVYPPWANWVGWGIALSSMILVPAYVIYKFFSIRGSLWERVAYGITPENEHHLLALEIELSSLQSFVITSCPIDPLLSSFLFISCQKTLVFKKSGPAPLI

With `O=C(NCC1COc2ccccc2O1)C1=NOC2(CCN(S(=O)(=O)c3cccs3)CC2)C1` (stereo not drawn) [Example 21, 8-(thiophene-2-sulphonyl)-1-oxa-2,8-diaza-spiro[4,5]dec-2-ene-3-carboxylic acid (2,3-dihydro-benzo[1,4]dioxin-2-ylmethyl)-amide], the inhibition at 10 µM in assay [1] amounted to 61%. Moreover, the inhibition at 1 µM in assay [2] is 31%.
For `Cc1ccccc1N1CCN(C(=O)C2=NOC3(CCN(S(=O)(=O)c4cccs4)CC3)C2)CC1` [Example 27, [8-(thiophene-2-sulphonyl)-1-oxa-2,8-diaza-spiro[4,5]dec-2-en-3-yl]-(4-o-tolyl-piperazin-1-yl)-methanone], the inhibition at 10 µM in assay [1] stood at 80%; in assay [3], 49%. The inhibition at 1 µM in assay [2] amounted to 37%.
Regarding `COc1ccccc1C1CCN(C(=O)C2=NOC3(CCN(S(=O)(=O)c4ccc(Cl)s4)CC3)C2)CC1` [Example 151, [8-(5-chloro-thiophene-2-sulphonyl)-1-oxa-2,8-diaza-spiro[4,5]dec-2-en-3-yl]-[4-(2-methoxy-phenyl)-piperidin-1-yl]-methanone], the inhibition at 1 µM in assay [2] is 33%.
As to `O=C(NCc1cccs1)C1=NOC2(CCN(S(=O)(=O)c3ccccc3Cl)CC2)C1` [Example 156, 8-(2-chloro-benzenesulphonyl)-1-oxa-2,8-diaza-spiro[4,5]dec-2-ene-3-carboxylic acid (thiophen-2-ylmethyl)-amide], the inhibition at 10 µM stood at 60% in assay [1] and 41% in assay [3].
As to `COc1ccc(S(=O)(=O)N2CCC3(CC2)CC(C(=O)NC(C)Cc2ccc(Cl)cc2)=NO3)cc1` (stereo not drawn) [Example 164, 8-(4-methoxy-benzenesulphonyl)-1-oxa-2,8-diaza-spiro[4,5]dec-2-ene-3-carboxylic acid [2-(4-chloro-phenyl)-1-methyl-ethyl]-amide], the values for the inhibition at 10 µM in assay [1] and in assay [3] were 80% and 54%, respectively.
`O=C(NCCc1ccc(Cl)c(Cl)c1)C1=NOC2(CCN(S(=O)(=O)c3ccc(OC(F)(F)F)cc3)CC2)C1` [Example 165]: the “NA-uptake, 10 μM, % inhibition” value in assay [1] stood at 55%. Besides, the “5HT-uptake, 10 μM, % inhibition” value in assay [3] was 41%.
